Measured values as given in publication PMC6325219, “Preclinical Characterization of NVR 3-778, a First-in-Class Capsid Assembly Modulator against Hepatitis B Virus” (Antimicrobial Agents and Chemotherapy, 2018).
Marks after values point to notes of the source that are not given here.

Experiments:
HBV GT D = assay: Transient-transfection antiviral study in HepG2 cells, GT D; format: cell-based; conditions: Hepatitis B virus, HepG2, 72 h, read-out: EC50 (mean), HBV GT D
Experimental: (§4) Cells were cotransfected with the HBV plasmids (100 ng/well) and a Gaussia expression plasmid (10 ng/well) (Thermo Scientific) using the Lipofectamine LTX Plus transfection reagent (Life Technologies). Transfection mixtures were removed after overnight incubation, and cells were treated with serially diluted NVR 3-778 at a final dimethyl sulfoxide (DMSO) concentration of 0.5%. After 3 days of incubation with the compound, the supernatants were collected and secreted Gaussia luciferase was measured using a Gaussia Flash luciferase assay kit (Thermo Scientific). […] Samples were diluted into lysis buffer (Affymetrix) containing 2.5 µg proteinase K (Affymetrix) at 50°C for 40 min. Intracellular encapsidated HBV DNA was denatured for 30 min at 25°C in 0.2 M NaOH (Sigma) and incubated with HBV DNA probes designed to hybridize to the minus-strand HBV DNA (Affymetrix). The denatured DNA was subsequently detected using a QuantiGene assay kit, according to the branched DNA (bDNA) assay recommended by the manufacturer (Affymetrix).

HBV GT G = assay: Transient-transfection antiviral study in HepG2 cells, GT G; format: cell-based; conditions: Hepatitis B virus, HepG2, 72 h, read-out: EC50 (mean), HBV GT G
Experimental: as §4

[1] = system: HBV rtA181V/N236T variant; format: cell-based, hepatitis B virus; conditions: ratio of mean EC50 against variant over WT HBV, HepG2 cells
From the text: (§1) Plasmids containing HBV DNA with rtN236T, rtA181V, rtA181V/N236T, and rtL180M/M204V/N236T were generated using the GT B WT or rtL180M/M204V DNA-containing plasmids and site-directed mutagenesis (Agilent Technologies). A panel of nine different HBV core variants (cW102G, cW102R, cI105V, cI105L, cI105T, cT109S, cT109M, cT109I, and cY118F) was generated, also using the GT B WT DNA-containing plasmid and site-directed mutagenesis. The full-length genome from all plasmids was sequenced to confirm that only the intended nucleotide change(s) was present. Finally, HBV sequences from genotypes A (GenBank accession number AF305422), C (GenBank accession number AB033550), D (GenBank accession number V01460), E (GenBank accession number AB274971), F (GenBank accession number AB036912), G (GenBank accession number AF160501), and H (GenBank accession number AB375159) were gene synthesized as 1.1 times the genome length together with part of the CMV promoter at the 5′ end. The gene-synthesized piece was validated by sequencing and subcloned into the pCMV-HBV plasmid using the restriction sites SalI and NdeI (Genewiz, USA).
(§2) HepG2 cells were seeded in 96-well plates at a density of 20,000 cells/well and allowed to attach overnight at 37°C in 5% CO2. Cells were cotransfected with the HBV plasmids (100 ng/well) and a Gaussia expression plasmid (10 ng/well) (Thermo Scientific) using the Lipofectamine LTX Plus transfection reagent (Life Technologies). Transfection mixtures were removed after overnight incubation, and cells were treated with serially diluted NVR 3-778 at a final dimethyl sulfoxide (DMSO) concentration of 0.5%. After 3 days of incubation with the compound, the supernatants were collected and secreted Gaussia luciferase was measured using a Gaussia Flash luciferase assay kit (Thermo Scientific). Cells were lysed with 0.33% NP-40 (Thermo Scientific), and the cytoplasmic fractions were treated with 2 units of Turbo DNase (Invitrogen) and 10 units of S7 nuclease (Roche) in CutSmart buffer (New England Biolabs) containing 25 µM CaCl2 (G-Biosciences) at 37°C for 60 min, followed by inactivation of the enzymes at 75°C for 15 min. Samples were diluted into lysis buffer (Affymetrix) containing 2.5 µg proteinase K (Affymetrix) at 50°C for 40 min. Intracellular encapsidated HBV DNA was denatured for 30 min at 25°C in 0.2 M NaOH (Sigma) and incubated with HBV DNA probes designed to hybridize to the minus-strand HBV DNA (Affymetrix). The denatured DNA was subsequently detected using a QuantiGene assay kit, according to the branched DNA (bDNA) assay recommended by the manufacturer (Affymetrix).
(§3) To determine percent inhibition, the mean background signal from wells containing only culture medium was subtracted from the signal for all other samples, and percent inhibition at each compound concentration was calculated by normalization to the signals for HepG2.2.15 cells treated with 0.5% DMSO. […] Both CalcuSyn and MacSynergy II (Ann Arbor, MI) software were used to evaluate the effect of compound combinations ([27]). After data analysis at the 95% confidence level, values of synergy or antagonism of <25 µM^2% were defined as insignificant, those between 25 and 50 µM^2% were defined as minor, those between 50 and 100 µM^2% were defined as moderate, and those of >100 µM^2% were defined as strong.

HBV rtN236T variant = format: cell-based, hepatitis B virus; conditions: ratio of mean EC50 against variant over WT HBV, HepG2 cells
From the text: as §1, §2, §3

[2] = system: HBV core protein variant T109S; assay: Transient-transfection antiviral study in HepG2 cells, core variant T109S; format: cell-based, hepatitis B virus
Experimental: as §4

[3] = parameters: method as in PMID 29079518; conditions: humanized mice; cited from earlier work
β-actin mRNA = assay: Host β-actin mRNA in PHH during de novo infection study; format: cell-based, human; conditions: 11 days, highest concentration tested 30 μM
Experimental: Cryopreserved PHH (Life Technologies) were seeded at 40,000 cells/well 1 day before infection. The HBV inoculum, concentrated from the supernatants of HepG2.2.15 cells, was prepared at 200 genome equivalents/cell in PHH medium (DMEM containing 10% FBS and a supplement cocktail containing HEPES, L-proline, insulin epidermal growth factor, dexamethasone, and ascorbic acid-2-phosphate, as previously described) with 2% DMSO and 4% polyethylene glycol (PEG) 8000 (Sigma). Compounds were serially diluted in DMSO at 50-fold strength and added to PHH medium containing the HBV inoculum, prior to infecting the PHH. After overnight incubation, the infection mixtures were removed and the cells were replenished with PHH medium containing freshly diluted compounds. On day 5 and day 8 postinfection, the media containing the compounds were removed and the cells were replenished with PHH medium containing freshly diluted compounds. […] HBV DNA, HBsAg, and HBeAg were determined from the supernatants of infected PHH using bDNA assays (Affymetrix) and HBsAg or HBeAg chemiluminescence immunoassay kits (Autobio), as recommended by the manufacturers. Intracellular total HBV RNA mRNA and host mRNA levels were monitored by using the QuantiGene assays (Affymetrix) and probe sets that hybridized to the X region, which is common to all HBV transcripts, and the host β-actin mRNA, respectively.

For `O=C(Nc1cc(F)c(F)c(F)c1)c1ccc(F)c(S(=O)(=O)N2CCC(O)CC2)c1` [NVR 3-778], the EC50 (HBV GT D) was 430 nM, the EC50 (HBV GT G) was 250 nM and the “EC50 fold change, rtA181V/N236T” value [1] was 0.85 ± 0.26^d fold. The “EC50 fold change, rtN236T” value (HBV rtN236T variant) was 0.85 ± 0.40^d fold, the EC50 ([2]; Hepatitis B virus, HepG2, read-out: EC50, core variant T109S) was 770 ± 270 nM and the “EC50 FC, T109S” value ([2]; ratio of mean EC50 for core variant over wild-type HBV) was 3.3 fold. The “Plasma trough concentrations, all mice” value [3] was “at least 3 µM”.

For `Nc1ccn([C@@H]2CS[C@H](CO)O2)c(=O)n1` [LMV, lamivudine, reference compound], the “CC50 (EC50), β-actin mRNA” value (β-actin mRNA) was greater than 30000 nM and the “CC90 (EC90 column), β-actin mRNA” value (β-actin mRNA) was greater than 30000 nM.
